Consider 33 compounds from article PMC11795524, “Melanin-Binding-Based Discovery of Topically Instilled Carbonic Anhydrase Inhibitors for Targeted Delivery and Prolonged Action in the Eye” (Molecular Pharmaceutics, 2025).

The nature of test [1]: In vitro melanin binding by microscale thermophoresis / initial fluorescence (Monolith NT.115 pico). Conditions: Appendix table 1, Nano or Pico detector, IF or MST mode, 68% confidence; for Kd: read-out: Melanin binding affinity Kd ± confidence. An excerpt:
Melanin binding of the CAI-II compounds was studied with a Monolith NT.115 pico (NanoTemper Technologies GmbH, Munich, Germany) device using the method of […] et al. […] Otherwise, normalized fluorescence signals and the ratio of relative fluorescence after heating (MST mode) were used. The MST software was used in expert mode to allow heating for 30 s. […] As ligand autofluorescence may interfere with the assay, their autofluorescence values were pretested with the detector used in experiment (nanoblue or pico-red). Fluorescence of the ligand should be below 20% of melanin fluorescence. Sample aggregation and adsorption to the capillaries were used also as exclusion criteria.
Background: Microscale thermophoresis detects binding through changes in fluorescence in a small temperature gradient.

The target in test [2] is recombinant human carbonic anhydrase II. Further details: method as in earlier work. Conditions: stopped flow kinetics protocol; read-out: Ki against hCA II; cited from earlier work.

By Kd is commonly meant the equilibrium constant for the complex coming apart. For orientation: Ki means a dissociation constant, usually derived from enzyme kinetics or from competition with a known ligand. Consider `NS(=O)(=O)NC1CCCc2ccccc21` (stereo not shown) [C16], for which, in test [1], the dissociation constant (Kd) is 25000 µM. The inhibition constant Ki in test [2] was 42.6 ± 4.3 nM.
With `NS(=O)(=O)c1ccc(-n2ncc3ccccc3c2=O)cc1` [A06], in test [1], the equilibrium dissociation constant (Kd) is 104 ± 42 µM. The Ki in test [2] is 0.23 ± 0.02 nM.
As to `NS(=O)(=O)N1CCC(O)CC1` [C04], the Kd in test [1] turned out to be 405 ± 311 µM. The Ki in test [2] was 42.7 ± 4.3 nM.
For `Cc1nn(-c2cc(S(N)(=O)=O)ccc2Cl)c(C)c1S(N)(=O)=O` [B10], the Ki in test [2] is 0.008 ± 0.01 nM.
In the case of `NS(=O)(=O)c1ccc(-c2ncc(C(=O)N3CCNCC3)o2)s1` [B02], the Kd in test [1] stood at 165 ± 19 µM. In test [2], the Ki is 0.069 ± 0.007 nM.
Regarding `Cc1cc(-n2cccn2)ccc1S(N)(=O)=O` [A23], the Kd in test [1] stood at 957 ± 2010 µM. Further, the Ki in test [2] is 0.008 ± 0.001 nM.
On to `NS(=O)(=O)c1cnn(-c2ccc(Cl)c(S(N)(=O)=O)c2)c1` [B07], for which the Kd in test [1] came to 941 ± 1740 µM. For the same compound, the Ki in test [2] is 0.008 ± 0.001 nM.
In the case of `NS(=O)(=O)c1ccc(-c2nc(-c3ccc(Oc4ccc(F)cc4)cc3)no2)cc1` [A16], the equilibrium dissociation constant (Kd) in test [1] stood at 451 ± 581 µM. Also, the Ki in test [2] is 48.3 ± 4.8 nM.
As for `CCN(CC)CCN(C)S(N)(=O)=O` [C10], in test [1], the dissociation constant Kd amounted to 1520 ± 4030 µM. Moreover, in test [2], the Ki is 92.3 ± 9.2 nM.
For `NS(=O)(=O)c1cccc(-c2nc(-c3cccnc3)no2)c1` [A02], in test [1], the equilibrium dissociation constant (Kd) worked out at 78 ± 24 µM. The Ki in test [2] was 0.77 ± 0.08 nM.
Regarding `Cc1ccc(-c2noc(N)c2S(N)(=O)=O)cc1S(N)(=O)=O` [B06], in test [1], the Kd was determined as 573 ± 154 µM. Also, in test [2], the Ki is 6 ± 0.6 nM.
With `Nc1onc(-c2csc(S(N)(=O)=O)c2)c1S(N)(=O)=O` [B09], the Kd in test [1] turned out to be 2130 µM. Further, the Ki in test [2] was 24.6 ± 2.5 nM.
As for `NS(=O)(=O)NCCc1ccc(S(=O)(=O)N2CCCC2)cc1` [C07], the Kd in test [1] turned out to be 596 ± 264 µM. The Ki in test [2] is 43.5 ± 4.4 nM.
As for `NS(=O)(=O)N1CCc2ccccc2C1` [C09], in test [1], the dissociation constant Kd was 1120 ± 2350 µM. For the same compound, the Ki in test [2] is 32.8 ± 3.3 nM.
Consider `CC(=O)Nc1nc(-c2csc(S(N)(=O)=O)c2)no1` [B03], for which the dissociation constant Kd in test [1] turned out to be 231 ± 43 µM.
Take `NC(=O)C1CCN(S(N)(=O)=O)CC1` [C22]: the “Melanin binding affinity Kd ± confidence” value in test [1] is reported as “Not detectable”. Further, the Ki in test [2] was 59.4 ± 6 nM.
On to `CN1CCC(NS(N)(=O)=O)CC1` [C12], for which the Kd in test [1] stood at 1680 ± 3480 µM. Also, the Ki in test [2] was 52.1 ± 5.2 nM.
Turning to `NS(=O)(=O)Nc1ccc(F)cc1F` [C01], the Kd in test [1] worked out at 92 ± 25 µM. Besides, the Ki in test [2] is 76.3 ± 7.6 nM.
For `NS(=O)(=O)Nc1cccc2ccccc12` [C08], the Kd in test [1] was 1050 ± 2070 µM. Further, the Ki in test [2] was 56.7 ± 5.7 nM.
In the case of `NS(=O)(=O)c1ccc(-n2ncc(N3CCc4ccccc4C3)c(Cl)c2=O)cc1` [A29], the Ki in test [2] was 60.5 ± 6 nM.
On to `Cc1ccccc1-c1noc(-c2ccc(S(N)(=O)=O)cc2)n1` [A11], for which the Kd in test [1] came to 177 ± 56 µM. Moreover, the Ki in test [2] was 0.42 ± 0.04 nM.
On to `NS(=O)(=O)c1ccc(-n2nc(-c3ccc(Cl)c(Cl)c3)ccc2=O)cc1` [A25], for which the Ki in test [2] was 74.1 ± 7.4 nM.
In the case of `NS(=O)(=O)NCc1cccc2ccccc12` [C02], in test [1], the Kd came to 122 ± 40 µM. Also, in test [2], the Ki is 5250 ± 525 nM.
Regarding `NS(=O)(=O)c1ccc2c(c1)Oc1ccccc1C(=O)N2C1CC1` [A21], the Kd in test [1] was 722 ± 1030 µM. Besides, the Ki in test [2] is 0.82 ± 0.08 nM.
`NS(=O)(=O)c1ccc(-n2ncccc2=O)cc1` [A20]: the Ki in test [2] is 8.2 ± 0.8 nM.
`CN(C)CCN(Cc1ccccc1)S(N)(=O)=O` [C11]: in test [1], the Kd was found to be 1620 ± 4530 µM. Moreover, the inhibition constant (Ki) in test [2] was 39.8 ± 4 nM.
`CCn1nc(-c2cc(S(N)(=O)=O)c(C)s2)ccc1=O` [B01]: the Kd in test [1] was 105 ± 30 µM. Moreover, the Ki in test [2] is 4.8 ± 0.5 nM.
Consider `CC(C)(C)c1ccc(-c2noc(-c3ccc(S(N)(=O)=O)cc3)n2)cc1` [A26], for which the Ki in test [2] was 0.95 ± 0.09 nM.
For the compound `NS(=O)(=O)N1CCC(N2CCCCC2)CC1` [C14], the inhibition constant (Ki) in test [2] was 99.3 ± 9.9 nM.
With `NS(=O)(=O)c1ccc(Cl)c(-n2cccn2)c1` [A27], the Ki in test [2] was 0.001 ± 0.001 nM.
Turning to `Cc1nn(-c2ccc(Cl)c(S(N)(=O)=O)c2)c(C)c1S(N)(=O)=O` [B08], the Ki in test [2] is 0.008 ± 0.001 nM.
Consider `NS(=O)(=O)N1CCCc2ccccc21` [C15], for which the Ki in test [2] is 89.5 ± 9 nM.
Consider `Cc1cc(C)n(-c2ccc(S(N)(=O)=O)cc2)n1` [A28], for which the Ki in test [2] is 0.004 ± 0.001 nM.
